Earlier results, collected in US12274284B2, “High-energy food supplement based on inverted sugars and ergogenic products for use in physical activity and method for producing same” (priority 2019, dated 2025).
Like-named read-outs stand apart in the source and are kept apart here.

Key:
oxidative stress markers = conditions: 300 mg/kg, 15 days, mice
action of insulin = conditions: 5%, 8 weeks, mice
[1] = test system: muscle carnosine concentrations; conditions: 4-6 g/day
[2] = not given; remark: listed apart in the source
[3] = 300 mg/day
[4] = oral administration
[5] = 1 to 6 g/day for a maximum of six months

NCCS(=O)(=O)O [taurine, 2-aminoethanesulfonic acid]
superoxide radicals, lipid peroxidation, carbonylation (oxidative stress markers): reduced the production of superoxide radicals, lipid peroxidation, and carbonylation
action of insulin in liver and skeletal muscle (action of insulin): boosted the action of insulin in the liver and the skeletal muscle

O=C1O[C@H]([C@@H](O)CO)C(O)=C1O [vitamin C]
tissue concentration of the vitamin (400 mg/day): increased the tissue concentration of the vitamin

vitamin E
blood plasma concentration of a protein associated with muscle injury (1000 UI/day): reduced the concentration of a protein associated with muscle injury in the blood plasma

NCCC(=O)O [β-alanine]
increase in muscle carnosine concentrations ([1]; after 10 weeks): 80%
increase in muscle carnosine concentrations ([1]; following 4 weeks): ≤ 64%

CC(=O)C(=O)O [pyruvate, calcium pyruvate]
patients with a fat loss ([2]; 0.05 g/Kg/day after 0.1 g/kg/day for 10 days, 13 to 38 days): 79.6%
patients with a reduction in skinfolds ([2]; in vivo): 89.8%
patients with a reduction in the abdomen circumference ([2]; in vivo): 74%

COC1=C(OC)C(=O)C(C/C=C(\C)CC/C=C(\C)CC/C=C(\C)CC/C=C(\C)CC/C=C(\C)CC/C=C(\C)CC/C=C(\C)CC/C=C(\C)CC/C=C(\C)CCC=C(C)C)=C(C)C1=O [coenzyme Q10]
feeling of tiredness and physical performance during effort tests [3]: reduced the feeling of tiredness and improved physical performance

Cn1c(=O)c2c(ncn2C)n(C)c1=O [Caffeine, 1,3,7 trimethylxanthine]
bioavailability [4]: approximately 100%

C[N+](C)(C)C[C@H](O)CC(=O)[O-] [carnitine, L-carnitine]
adverse effect or intoxication [5]: no adverse effect or intoxication
plasma concentrations of carnitine [5]: considerably improved the plasma concentrations of carnitine
